One data set has as its system MCF7 cells. Nature of the data set: [3H]thymidine incorporation in MCF7 cells. The data set is classed as cell-based, human. The settings on record: 200 nM, serum 24 hours. The procedure:
Cell Culture and DNA Synthesis: T47D (ductal carcinoma) and MCF7 (adenocarcinoma) human breast cancer cell lines were obtained from the American Type Culture Collection. All cell lines were maintained according to vendors' recommendations. The cells were growth arrested by placing them in serum-free quiescence media and exposed to 10% serum-containing media as indicated. [^3H]Thymidine incorporation was assessed as described previously (Weiss, R. H., and Nuccitelli, R., J. Biol. Chem., 267: 5608-5613, 1992).
Apoptotic cells will not incorporate thymidine into DNA during S phase, but [^3H]thymidine incorporation experiments will not distinguish between G1→S arrest and apoptosis. Serum-starved cells were transfected with 200 nM antisense p21 and control ODN, stimulated with serum-containing media, and examined for their ability to incorporate [^3H]thymidine into DNA. […] Antisense p21 attenuates [^3H]thymidine incorporation. MCF7 and T47D cells were grown to confluence, serum starved for 24 hours, and lipofected with antisense p21 (AS) or control (SC) ODN at the concentrations indicated (in nM). […] Serum was added for 24 hours, and the cells were incubated with [^3H]thymidine for the last 6 hours. DNA synthesis was assessed by [^3H]thymidine incorporation and is expressed as mean +SD of 3 wells/data point. *, P <0.05 compared with antisense p21 ODN transfection. […]

The next data set deals with Rb. Nature of the data set: Rb hyperphosphorylation by Western blot in A431 cells. The data set is classed as cell-based, human. The settings on record: 400 nM, 10% serum 6 and 24 hours. The procedure: Upon activation by cyclin/cdk complexes, the Rb protein in turn becomes phosphorylated, causing it to release the transcription factors known as E2F, leading to early oncogene expression and ultimately to cell growth. An effect of p21^Waf1/Cip1 on cdk/Rb interaction would be evident by a change in phosphorylation state of the Rb protein: this property can be assessed by examining small changes in gel mobility of this protein. A431 cells were transfected with 400 nM antisense p21^Waf1/Cip1 oligodeoxynucleotide (SEQ. ID NO.:1) or with lipofectin only (no DNA). After overnight incubation in serum-free medium, the cells were stimulated with complete media for 6 or 24 hours, lysed, and the lysates were Western blotted with Rb antibody.

Another data set relates to caspase-3. Nature of the data set: Caspase-3 activation (cleavage product) by Western blot in VSM cells. The data set is classed as cell-based, rat. As to the method: FIGS. 19A and B depict how Caspase-3 is activated by antisense oligonucleotide to p21 but not early after radiation or Adriamycin, as described in Example III, infra. Confluent VSM cells were transfected with oligonucleotide in the concentration indicated, left in serum-containing media overnight, and exposed to (A) ionizing radiation (12 Gy) or (B) Adriamycin where indicated. 4 hours later, activation of caspase-3 was assessed by Western blotting. The arrowhead indicates the cleavage product of caspase-3 signifying its processing as an early step in apoptosis. Wortmannin (wort) is a positive control for apoptosis. […] The experiment shown is representative of two separate experiments.
Western blots: Cells were grown to confluence in 6 cm culture dishes and serum deprived. After transfection and or treatment with appropriate agonist, conditioned medium was removed and saved and the cells were washed with phosphate-buffered saline and lysed in lysis buffer. Both supernatant and cell lysate were normalized to the lysate protein concentrations and Western blotted as described (Weiss R H, et al. Am J Physiol 274:C1521-C1529, 1998).
In order to determine whether the potentiation of ionizing radiation and Adriamycin induced DNA synthesis inhibition by p21 antisense oligonucleotides is accompanied by apoptosis, caspase-3 activation in response to ionizing radiation was examined. Caspase-3 is an effector caspase whose activation (leading to apoptosis) results in a 20 kD cleavage product which can be assessed by Western blotting (McCarthy N J, Evan G I. Curr Top Dev Biol 36:259-278, 1998). This process is an early event in a cascade of reactions which ultimately leads to apoptosis, as is evident by the fact that inactivation of caspase-3 dramatically reduces apoptosis in several cell lines (Woo M, et al. Genes Dev 12:806-819, 1998).
VSM cells were transfected with antisense or control oligonucleotides overnight and then stimulated with ionizing radiation.
(A western blot detects proteins with antibodies after separation by electrophoresis.)

Another data set relates to VSM cells. Nature of the data set: Apoptosis by Hoechst 33258 staining in VSM cells. The data set is classed as cell-based, rat. The settings on record: 24 hours after transfection. The procedure: FIG. 20A-D show how the antisense oligonucleotide to p21 induces VSM cell apoptosis, as described in Example III, infra. VSM cells were grown on glass cover slips and transfected with (A,B) random sequence control oligonucleotide to p21 or (C,D) antisense oligonucleotide. 24 hours later, the cells were fixed and stained in situ with Hoechst 33258. Representative microscopic fields were photographed under (A,C) visual or (B,D) UV light at 40×.
Apoptosis assays: Cells were grown on collagen-coated coverslips, and transfected as stated above. 16-24 hours after transfection, cells were exposed to 12 Gy dose of γ-irradiation or 0.5 μM wortmannin. 24 hours later, cells were fixed in 3.7% formaldehyde (diluted in PBS) for 10 minutes. The cells were rinsed with cold PBS and permeabilized using 0.1% Triton X-100 (diluted in deionized water) for 5 minutes. Rinsed again with PBS, the cells on the coverslips were submerged in Hoechst Staining solution (3.0 μl in 37.5 ml deionized water) for 5 minutes. Cells were given a final three rinses with cold PBS before being mounted in polyvinyl alcohol mounting medium. Cell nuclei were visualized using a ZEISS WL Microscope and photographed under 40×.
As another measure of apoptosis, transfected cells fixed and stained with Hoechst 33258 were examined.

The test system of a further data set is cyclin D1/cdk 4. Description: Cyclin D1 immunoprecipitation / cdk 4 immunoblot in A10 VSM cells. The data set is classed as cell-based, rat. The settings on record: PDGF-BB 30 ng/ml, all times. The procedure: Cells were transfected with p21^Waf1/Cip1 antisense (SEQ. ID NO.:1) or sense oligodeoxynucleotide (SEQ. ID NO.:2), allowed to grow overnight in serum-free media. After overnight incubation in serum-free medium, the cells were stimulated with PDGF-BB (30 ng/ml) for the times indicated. The cells were subsequently immunoprecipitated with either cyclin D1 or cyclin E and immunoblotted with cdk 4 or cdk 2, respectively.

As to “5′-ATC-CCC-AGC-CGG-TTC-TGA-CAT-3′ (antisense ATCCCCAGCCGGTTCTGACAT; listed as DNA, chemistry not fully specified) [antisense p21 ODN]”, the “[3H]thymidine incorporation (DNA incorporation)” value with MCF7 cells is reported as “significant attenuation”.

For the substance 5′-GACATCACCAGGATCGGACAT-3′, the “serum-induced Rb hyperphosphorylation versus no-DNA control” value in the data set with Rb is given as “no difference”. The caspase-3 activation entry in the data set on caspase-3 (Adriamycin experiment (FIG. 19b)) was “caspase-3 activation was observed”; with caspase-3 (alone or after ionizing radiation 12 Gy, 4 hours), “impressive increase”. Moreover, the “apoptotic changes (Hoechst 33258)” value in the data set with VSM cells is given as “extensive apoptotic changes”. Moreover, in the data set on cyclin D1/cdk 4, the “association of cyclin D1 and cdk 4” value was “marked decrease”.

(Values after US20050043262A1, “Novel specific inhibitor of the cyclin kinase inhibitor p21Waf1/Cip1 and methods of using the inhibitor” (priority 2000, published 2005).)
